Experimental data reported in patent US20250059139A1, “COMPOUNDS FOR TREATMENT OF CANCER” (THE JOHNS HOPKINS UNIVERSITY, priority 2021, published 2025).

Legend:
[1] = system: human umbilical vein endothelial cells (HUVECs); experiment: Three dimensional (3D) endothelial sprouting assay; assay type: cell-based; settings: HUVEC, CM-supplemented 3D-fibrin cultures, read-out: IC90 for inhibiting endothelial cell sprouting
Experimental: Three Dimensional (3D) Endothelial Sprouting Assay. The assay was performed using a minimum of 3 replicate wells of a 48 well tissue culture plate per drug dose per experiment, repeated 3 independent times in which human umbilical vein endothelial cells (HUVECs) obtained from Lonza Walkersville Inc (Walkersville, MD) attached to gelatin-coated dextran microcarrier bead are embedded in a fibrin matrix as described previously (Brennen et al. Oncotarget 7, 71298-71308 (2016)).
Besides its therapeutic effects on cancer cells, TasQ's anti-cancer efficacy also involves its dose-dependent anti-angiogenic activity (see, e.g., Isaacs 2006, Olsson 2010, Dalrymple 2012), Isaacs 2013, Isaacs 2014, Brennen 2016). To clarify the MoA for this anti-angiogenic activity, a 3-dimensional (3D) endothelial cell sprouting assay was used. In this assay, human umbilical vein endothelial cells (HUVECs) in basal media supplemented with VEGF, EGF, FGF, IGF1 and 2% FBS in standard 2D cultures are attached to collagen-coated beads embedded in a 3D-fibrin gel in the same growth factor-supplemented media. […] This lack of sprouting is associated with an upregulation in Mef-2c mRNA (Table 2) and protein (FIG. 38), and its target genes (Table 2) like Alpha 2 Macroglobulin (A2M). […]

[2] = system: AHR protein in LNCaP cells; experiment: AHR translocation and downregulation in LNCaP cells (immunoblot); assay type: cell-based, human; settings: TasQ 10 μM
Experimental: Western Blot Analysis. Analysis and quantification of protein expression via immunoblot was performed as previously described (Brennen 2021). All assays were performed with total cell lysates from an equal number (i.e., 100,000) of cells loaded per lane for accurate comparisons across cell lines and conditions.

HDAC4 KD LNCaP cells = experiment: In vitro growth of HDAC4 KD LNCaP cells; assay type: cell-based, human
Experimental: Generation of stable shRNA Knock Down (KD) Variants. Stable shRNA HDAC4, and HIF-1α knockdown (KD) were as described previously (id.). Stable shRNA AHR KD as described previously (id.) using […] (SEQ ID NO: 1) as the targeting sequence.
Similarly, under such optimal conditions, knocking down HDAC4 expression by 50% with shRNA only decreases the growth of LNCaP cells by <25%, which is equivalent to the inhibition by TasQ at 10 μM (FIG. 22). […] In contrast to normoxic in vitro conditions, cancers outgrow their blood supply in vivo, producing a TME that is hypoxic, nutrient-limited, and acidic (low pH). For example, when prostate cancer xenografts growing subcutaneously reach a size of ˜0.2-0.3 cc, the TME is already hypoxic with a pO2 of 3.6+/−1.5 mmHg compared to 37.5+/−8.6 mmHg in normal tissue (Dalrymple et al. Prostate 72, 638-648 (2012)). When LNCaP cells are switched from 21% O2 (i.e., 160 mmHg) to a hypoxic condition of 1% O2 (i.e., 7.6 mmHg), their growth decreases by 50% (FIG. 22). This hypoxia-induced growth inhibition is enhanced by either knocking down HDAC4 or by treatment with TasQ (FIG. 22).

solid malignances = settings: cited from earlier work

| SMILES | IC90 [1] [µM] | time to downregulation of the AHR protein [2] [h] | effect on HDAC4 KD cells exposed to hypoxia (HDAC4 KD LNCaP cells; 10 μM, 1% O2) | inhibition at 10 µM (HDAC4 KD LNCaP cells; Homo sapiens, LNCaP, normoxic) [%] | fold increase in anti-tumor efficacy compared to Linomide (solid malignances; in vivo) [fold] | fold enhanced potency in antiangiogenic and anti-metastatic ability (solid malignances; preclinical studies, vs. first-generation Linomide) |
| --- | --- | --- | --- | --- | --- | --- |
| COc1cccc2c1c(O)c(C(=O)N(c1ccc(C(F)(F)F)cc1)C1CCCCC1)c(=O)n2C [ESATA-20] | 1 |  |  |  |  |  |
| COc1cccc2c1c(O)c(C(=O)N(C)c1ccc(C(F)(F)F)cc1)c(=O)n2C [TasQ, Tasquinimod] | 10 | 2 to 4 | the cells die | > 50 | > 25 | 30-60 fold |
